Consider 22 compounds from patent US20260216157A1, “TETRAHYDROTHIOPHENE DERIVATIVE AND USE THEREOF IN MEDICINE” (Haisco Pharmaceutical Group Co., Ltd., priority 2023, published 2026).

T1 sequence (Q9Y5Y9 whole entry): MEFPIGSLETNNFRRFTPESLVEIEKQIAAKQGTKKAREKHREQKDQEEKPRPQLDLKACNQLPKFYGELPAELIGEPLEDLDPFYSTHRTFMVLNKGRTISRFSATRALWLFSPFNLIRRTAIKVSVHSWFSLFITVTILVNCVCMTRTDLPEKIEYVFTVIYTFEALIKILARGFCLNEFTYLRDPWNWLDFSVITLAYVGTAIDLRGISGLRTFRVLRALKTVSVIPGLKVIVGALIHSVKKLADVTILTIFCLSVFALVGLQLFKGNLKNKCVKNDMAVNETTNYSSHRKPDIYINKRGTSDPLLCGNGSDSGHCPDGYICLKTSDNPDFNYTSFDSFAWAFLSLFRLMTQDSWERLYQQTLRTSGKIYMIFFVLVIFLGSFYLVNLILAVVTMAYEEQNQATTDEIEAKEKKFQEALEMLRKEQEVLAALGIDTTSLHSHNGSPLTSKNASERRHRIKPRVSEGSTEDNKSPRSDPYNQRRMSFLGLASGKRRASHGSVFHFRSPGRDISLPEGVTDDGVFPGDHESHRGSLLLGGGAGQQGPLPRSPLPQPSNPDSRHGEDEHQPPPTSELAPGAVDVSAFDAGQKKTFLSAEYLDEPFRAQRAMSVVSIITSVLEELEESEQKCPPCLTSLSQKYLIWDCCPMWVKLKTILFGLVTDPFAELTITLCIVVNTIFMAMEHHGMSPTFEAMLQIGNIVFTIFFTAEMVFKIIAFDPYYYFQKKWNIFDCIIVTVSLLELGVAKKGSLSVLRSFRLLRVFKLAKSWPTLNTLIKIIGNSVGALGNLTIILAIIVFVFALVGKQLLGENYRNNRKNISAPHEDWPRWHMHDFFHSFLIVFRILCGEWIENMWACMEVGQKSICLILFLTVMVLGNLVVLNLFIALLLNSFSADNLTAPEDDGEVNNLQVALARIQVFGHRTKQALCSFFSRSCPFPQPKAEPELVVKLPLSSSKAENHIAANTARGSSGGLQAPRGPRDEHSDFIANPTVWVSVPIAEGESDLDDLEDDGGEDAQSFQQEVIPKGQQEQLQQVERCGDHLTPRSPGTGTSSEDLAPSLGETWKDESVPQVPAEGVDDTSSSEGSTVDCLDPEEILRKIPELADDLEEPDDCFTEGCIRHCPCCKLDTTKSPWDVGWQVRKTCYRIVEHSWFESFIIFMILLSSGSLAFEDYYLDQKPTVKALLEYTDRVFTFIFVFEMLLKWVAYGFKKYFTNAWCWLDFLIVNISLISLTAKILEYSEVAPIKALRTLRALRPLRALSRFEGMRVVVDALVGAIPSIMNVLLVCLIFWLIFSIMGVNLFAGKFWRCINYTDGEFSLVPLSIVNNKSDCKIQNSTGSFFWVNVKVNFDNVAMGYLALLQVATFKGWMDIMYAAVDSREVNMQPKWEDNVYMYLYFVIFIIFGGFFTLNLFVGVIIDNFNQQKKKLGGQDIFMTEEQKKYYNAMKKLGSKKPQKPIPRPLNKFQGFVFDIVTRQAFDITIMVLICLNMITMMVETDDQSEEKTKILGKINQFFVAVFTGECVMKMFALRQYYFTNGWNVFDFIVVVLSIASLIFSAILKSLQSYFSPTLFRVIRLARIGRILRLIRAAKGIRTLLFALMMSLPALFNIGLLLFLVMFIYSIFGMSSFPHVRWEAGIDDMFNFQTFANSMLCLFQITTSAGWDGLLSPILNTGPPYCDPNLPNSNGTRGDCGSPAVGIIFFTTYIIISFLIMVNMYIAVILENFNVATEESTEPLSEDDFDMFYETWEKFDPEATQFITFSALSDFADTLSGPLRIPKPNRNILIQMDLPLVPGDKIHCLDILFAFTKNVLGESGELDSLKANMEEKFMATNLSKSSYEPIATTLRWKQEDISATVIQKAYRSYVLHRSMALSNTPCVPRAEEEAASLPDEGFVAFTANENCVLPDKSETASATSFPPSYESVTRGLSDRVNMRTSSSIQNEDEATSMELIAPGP

The test addresses T1, hNav1.8 (Homo sapiens, UniProt Q9Y5Y9).
T1 construct: expressed in transfected cells; host or cells: CHO
Briefly: Nav1.8 manual patch clamp test. Format: cell-based. The following applies: CHO cells stably expressing human Nav1.8; whole-cell patch clamp, half-inactivated state; read-out: Inhibitory activity (IC50) against hNav1.8. The method, then: Nav1.8 Manual Patch Clamp Test
CHO cell lines stably expressing human Nav1.8 were cultured in a Ham's F-12 medium containing 10% fetal bovine serum, 10 μg/mL Blasticidin, 200 μg/mL Hygromycin B and 100 μg/mL Zeocin. The cells were cultured at 37° C. with a carbon dioxide concentration of 5%. The old medium was removed, and the cells were rinsed once with PBS. Then, 1 mL of 0.25%-Trypsin-EDTA solution was added, and the cells were incubated at 37° C. for approximately 1.5 min. Once the cells detached from the bottom of the dish, complete medium pre-warmed to 37° C. was added. The cell suspension was gently triturated with a pipette to dissociate the clumped cells. The cell suspension was transferred to a sterile centrifuge tube and centrifuged at 1000 rpm for 5 min to collect the cells. The cells were seeded into 6 cm cell culture dishes at a density of 2.5×10^5 cells per cell culture dish (final volume: 5 mL) for expansion or maintenance culture. To maintain the electrophysiological activity of the cells, the cell density should not exceed 80%. Before patch clamp testing, the cells were dissociated with 0.25%-Trypsin-EDTA. 6.5×10^3 cells were plated onto coverslips and cultured in 24-well plates (final volume: […]) for 18 hours before detection.
The compound was dissolved in dimethyl sulfoxide (DMSO) and prepared into a 30 mM DMSO stock solution. The stock solution was diluted with the extracellular fluid (140 mM NaCl, 3.5 mM KCl, 1 mM MgCl2·6H2O, 2 mM CaCl2·2H2O, 10 mM D-Glucose, 10 mM HEPES and 1.25 mM NaH2PO4·2H2O; adjusted to pH 7.4 with NaOH) to the test concentration, and the final DMSO concentration of all test samples was 0.1%.
(3) Electrophysiological Test
First, the recording electrodes were pulled from capillary glass tubes by using a microelectrode puller. Then, the electrodes were filled with the intracellular fluid (50 mM CsCl, 10 mM NaCl, 10 mM HEPES, 60 mM CsF and 20 mM EGTA; adjusted to pH 7.2 with CsOH) and mounted onto the microelectrode holder. Under an inverted microscope, the microelectrode manipulator was used to immerse the electrodes into the extracellular fluid, and the pipette resistance (Rpip) was recorded. The electrodes were slowly brought into contact with the cell surface, and negative pressure suction was applied to form a […]. At this point, fast capacitance compensation was performed, and negative pressure was continuously applied to break the cell membrane, forming a whole-cell recording mode. Finally, slow capacitance compensation was performed, and experimental parameters such as series resistance (Rs) were recorded. No electric leakage compensation was applied. When the Nav1.8 current in whole-cell recording was stable, drug administration was initiated, with each drug concentration for approximately 5 min (or until the current was stable). The coverslips spread with the cells were placed in a recording chamber under the inverted microscope. The blank control extracellular fluid and the test compound working solution were perfused through the recording chamber via the gravity-driven perfusion method, thereby acting on the cells, and a peristaltic pump was used to facilitate liquid exchange. The current recorded from cells in compound-free extracellular fluid was used as the control group. All electrophysiological experiments were conducted at room temperature. The inhibition rate of compounds on Nav1.8 was determined by calculating the relative percentage of peak currents generated before and after the cells were treated with the compounds.
The voltage stimulation protocol for whole-cell patch clamp recording of Nav1.8 sodium currents was described as follows. When the whole-cell sealing was formed, the cells were clamped at a voltage of −120 mV. First, the voltage was stepped from −110 mV to −30 mV in 10 mV increments and maintained for 5 s, followed by a depolarizing pulse to 0 mV to obtain a half-inactivation voltage (Vhalf). […]
For orientation: Patch clamp records ionic current or voltage across a cell membrane.
For the compound `COc1c(C2C(C(=O)Nc3ccnc(C(N)=O)c3)SC(C)(C(F)(F)F)C2C)ccc(F)c1F` (stereo not shown), the IC50 is less than 0.1 nM. Take `COc1c([C@H]2[C@H](C(=O)Nc3ccc(F)c(S(C)(=N)=O)c3)S[C@@](C)(C(F)(F)F)[C@H]2C)ccc(F)c1F` (stereo partly shown): the IC50 is less than 0.1 nM.

Turning to `COc1c(C2C(C(=O)Nc3ccnc(OCC(O)CO)c3)SC(C)(C(F)(F)F)C2C)ccc(F)c1F` (mixture of isomers) [Mixture of compounds 33-1a and 33-1b], the IC50 was less than 1 nM. With `COc1c([C@H]2[C@H](C(=O)Nc3ccc[n+]([O-])c3)S[C@@](C)(C(F)(F)F)[C@H]2C)ccc(F)c1F` (racemic) [Mixture of compounds 20-1a and 20-1b], the IC50 is less than 0.1 nM.

Consider `COc1c(C2C(C(=O)Nc3ccnc(C(N)=O)c3)SC(C)(C(F)(F)F)C2C)ccc(F)c1F` (single isomer, unassigned) [Compound 1-2P1], for which the IC50 was less than 0.1 nM. Turning to `COc1c(C2C(C(=O)Nc3ccnc(C(N)=O)c3)SC(C)(C(F)(F)F)C2C)ccc(F)c1F` (single isomer, unassigned) [Compound 1-2P2], the IC50 is less than 10 nM. To `COc1c(C2CC(C)(C(F)(F)F)SC2C(=O)Nc2cccc(C(N)=O)c2)ccc(F)c1F` (single isomer, unassigned) [Compound 32-1P1] belongs less than 1 nM.

As to `COc1c(C2CC(C)(C(F)(F)F)SC2C(=O)Nc2cccc(C(N)=O)c2)ccc(F)c1F` (single isomer, unassigned) [Compound 32-1P2], the IC50 was less than 1 nM. Consider `COc1c([C@@H]2C[C@](C)(C(F)(F)F)S[C@H]2C(=O)Nc2ccc(F)c(C(N)=O)c2)ccc(F)c1F` (single isomer, unassigned) [Compound 70-a], for which the IC50 was less than 0.1 nM. For the compound `COc1c([C@H]2[C@H](C(=O)Nc3ccnc(C(N)=O)c3)S[C@@](C)(C(F)(F)F)[C@H]2C)ccc(F)c1F` [Compound 1-2a], the IC50 was less than 0.1 nM.

Consider `COc1c([C@H]2[C@H](C(=O)Nc3ccnc(S(N)(=O)=O)c3)S[C@@](C)(C(F)(F)F)[C@H]2C)ccc(F)c1F` [Compound 5-3a], for which the IC50 is less than 0.1 nM. In the case of `COc1c([C@H]2[C@H](C(=O)Nc3cccc(S(N)(=O)=O)c3)S[C@@](C)(C(F)(F)F)[C@H]2C)ccc(F)c1F` [Compound 7-1a], the IC50 was less than 0.1 nM.

Consider `COc1c([C@H]2[C@H](C(=O)Nc3ccc(F)c(S(N)(=O)=O)c3)S[C@@](C)(C(F)(F)F)[C@H]2C)ccc(F)c1F` [Compound 8-1a], for which the IC50 is less than 0.1 nM. For the compound `COc1c([C@H]2[C@H](C(=O)Nc3ccc(CO)nc3)S[C@@](C)(C(F)(F)F)[C@H]2C)ccc(F)c1F` [Compound 18-2a], the IC50 was less than 1 nM. To `COc1c([C@H]2[C@H](C(=O)Nc3cnc(CO)nc3)S[C@@](C)(C(F)(F)F)[C@H]2C)ccc(F)c1F` [Compound 19-2a] belongs less than 1 nM. To `COc1c([C@H]2[C@H](C(=O)Nc3ccc[n+]([O-])c3)S[C@@](C)(C(F)(F)F)[C@H]2C)ccc(F)c1F` [Compound 20-1a] belongs less than 1 nM.

Consider `COc1c([C@H]2[C@H](C(=O)Nc3cccc(S(C)(=O)=O)c3)S[C@@](C)(C(F)(F)F)[C@H]2C)ccc(F)c1F` [Compound 22-1a], for which the IC50 was less than 0.1 nM. With `COc1c([C@H]2[C@H](C(=O)Nc3ccnc(S(C)(=O)=O)c3)S[C@@](C)(C(F)(F)F)[C@H]2C)ccc(F)c1F` [Compound 25-1a], the IC50 was less than 0.1 nM.

For `COc1c([C@H]2[C@H](C(=O)Nc3ccc(F)c(S(C)(=O)=O)c3)S[C@@](C)(C(F)(F)F)[C@H]2C)ccc(F)c1F` [Compound 26-1a], the IC50 was less than 0.1 nM. Turning to `COc1c([C@H]2[C@H](C(=O)Nc3cc[nH]c(=O)c3)S[C@@](C)(C(F)(F)F)[C@H]2C)ccc(F)c1F` [Compound 36-2a], the IC50 is less than 0.1 nM. To `COc1c([C@H]2[C@H](C(=O)Nc3ccc(F)c(CO)c3)S[C@@](C)(C(F)(F)F)[C@H]2C)ccc(F)c1F` [Compound 48-1a] belongs less than 1 nM; to `COc1c([C@H]2[C@H](C(=O)Nc3ccnc(CO)c3)S[C@@](C)(C(F)(F)F)[C@H]2C)ccc(F)c1F` [Compound 50], less than 1 nM.

The term IC50 denotes the point on the concentration scale where inhibition reaches its midpoint.
